# Where two headings read alike, the source gives them in different places.
# Tested on: MV4-11 cell line (myelomonocytic leukemia)
# Settings: MV4-11 cells
# [1] = Ibuprofen-TDZD analogs (Table 3)
SMILES,"LD50, 7AAD (μM) 24 h (MMB-TDZD analogs (Table 2)) [µM]","LD50, Alamar blue (μM) 24 h (MMB-TDZD analogs (Table 2)) [µM]","LD50, YOPRO (μM) 24 h (MMB-TDZD analogs (Table 2)) [µM]","LD50, 7AAD (μM) 24 h [1] [µM]","LD50, Alamar blue (μM) 24 h [1] [µM]","LD50, YOPRO (μM) 24 h [1] [µM]",LD50 (values in text) [nM]
C=C1C(=O)O[C@H]2[C@H]1CC/C(COC(=O)NCc1ccc(Cn3c(=O)sn(-c4ccc(C#N)cc4)c3=O)cc1)=C\CC[C@@]1(C)O[C@@H]21 [BSK-263],0.23,0.75,0.13,,,,
CC(C)Cc1ccc(C(C)C(=O)NCc2ccc(Cn3c(=O)sn(CCI)c3=O)cc2)cc1 (stereo not shown) [BSK-265],,,,2.71,2.50,2.87,
CC(C)Cc1ccc(C(C)C(=O)NCc2ccc(Cn3c(=O)sn(-c4ccc(Cl)cc4)c3=O)cc2)cc1 (stereo not shown) [BSK-266],,,,10.7,12.00,10.6,
CC(C)Cc1ccc(C(C)C(=O)NCc2ccc(Cn3c(=O)sn(-c4ccc(C#N)cc4)c3=O)cc2)cc1 (stereo not shown) [BSK-267],,,,14.8,12.00,17.3,
C=C1C(=O)O[C@H]2[C@H]1CC/C(COC(=O)NCc1ccc(Cn3c(=O)sn(-c4ccc(Cl)cc4)c3=O)cc1)=C\CC[C@@]1(C)O[C@@H]21 [BSK-268],0.55,0.63,0.68,,,,130
COc1ccc(-n2sc(=O)n(Cc3ccc(CNC(=O)C(C)c4ccc(CC(C)C)cc4)cc3)c2=O)cc1 (stereo not shown) [BSK-270],,,,8.21,9.00,6.14,
"Cn1sc(=O)n(Cc2ccccc2)c1=O [TDZD-8, 4-benzyl, 2-methyl, 1,2,4-thiadiazolidine, 3,5 dione, reference compound]",3.61,4.5,3.29,3.61,4.5,3.29,
